Laboratory results from PubChem BioAssay AID328 (DTP/NCI, 2004).
Where “and” joins values, the source holds several entries; their conditions need not be identical. Equal values may be shown once. Toxic doses and inconclusive results are not listed.

System: BDF1 mice, P388 leukemia ip, median survival T/C
Assay: NCI In Vivo Anticancer Drug Screen. Data for tumor model P388 Leukemia (intraperitoneal) in B6D2F1 (BDF1) mice
Settings: endpoint: median survival time, higher = longer survival
Procedure, shortened: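 Reported as T/C, where T is the survival measurement in dosed animals and C the same measurement in vehicle controls.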

[1] = dose: 50.0 mg/kg/injection, schedule: Q01DX009 (ip), vehicle: saline with Tween-80
[2] = dose: 100.0 mg/kg/injection, schedule: Q01DX009 (ip), vehicle: saline with Tween-80
[3] = dose: 200.0 mg/kg/injection, schedule: Q01DX009 (ip), vehicle: saline with Tween-80
[4] = dose: 100.0 mg/kg/injection, schedule: Q04DX003 (ip), vehicle: saline
[5] = dose: 200.0 mg/kg/injection, schedule: Q04DX003 (ip), vehicle: saline
[6] = dose: 400.0 mg/kg/injection, schedule: Q04DX003 (ip), vehicle: saline
[7] = dose: 100.0 mg/kg/injection, schedule: Q01DX009 (ip), vehicle: saline
[8] = dose: 200.0 mg/kg/injection, schedule: Q01DX009 (ip), vehicle: saline
[9] = dose: 400.0 mg/kg/injection, schedule: Q01DX009 (ip), vehicle: saline
[10] = dose: 75.0 mg/kg/injection, schedule: Q01DX009 (ip), vehicle: Klucel (hydroxypropylcellulose) (HPC)
[11] = dose: 100.0 mg/kg/injection, schedule: Q01DX009 (ip), vehicle: Klucel (hydroxypropylcellulose) (HPC)
[12] = dose: 100.0 mg/kg/injection, schedule: Q04DX003 (ip), vehicle: Klucel (hydroxypropylcellulose) (HPC)
[13] = dose: 150.0 mg/kg/injection, schedule: Q01DX009 (ip), vehicle: Klucel (hydroxypropylcellulose) (HPC)
[14] = dose: 200.0 mg/kg/injection, schedule: Q01DX009 (ip), vehicle: Klucel (hydroxypropylcellulose) (HPC)
[15] = dose: 200.0 mg/kg/injection, schedule: Q04DX003 (ip), vehicle: Klucel (hydroxypropylcellulose) (HPC)
[16] = dose: 400.0 mg/kg/injection, schedule: Q01DX009 (ip), vehicle: Klucel (hydroxypropylcellulose) (HPC)
[17] = dose: 400.0 mg/kg/injection, schedule: Q04DX003 (ip), vehicle: Klucel (hydroxypropylcellulose) (HPC)

CC(C)C[CH2][Pb]([Cl])([CH2]CC(C)C)[CH2]CC(C)C was tested, and the T/C (dose: 0.12 mg/kg/injection, schedule: Q01DX009 (ip), vehicle: Klucel (hydroxypropylcellulose) (HPC)) was 104 % of control, the T/C (dose: 0.25 mg/kg/injection, schedule: Q01DX009 (ip), vehicle: Klucel (hydroxypropylcellulose) (HPC)) was 106 % of control and the T/C (dose: 0.5 mg/kg/injection, schedule: Q01DX009 (ip), vehicle: Klucel (hydroxypropylcellulose) (HPC)) was 109 % of control. For the same molecule, the T/C (dose: 1.0 mg/kg/injection, schedule: Q01DX009 (ip), vehicle: Klucel (hydroxypropylcellulose) (HPC)) was 120 % of control.

CS(=O)(=O)Nc1ccccc1-c1nc2ccccc2c(=O)o1 was tested, and the T/C (dose: 25.0 mg/kg/injection, schedule: Q01DX009 (ip), vehicle: saline with Tween-80) was 105 % of control, the T/C [1] was 104 % of control and the T/C [2] was 105 % of control. For the same molecule, the T/C [3] was 103 % of control.

In the case of CCCCCCCC[N+](C)(C)CCSCC[N+](C)(C)CCCCCCCC, the T/C (dose: 12.5 mg/kg/injection, schedule: Q01DX009 (ip), vehicle: saline with Tween-80) is reported as 109 % of control.

In the case of CC(C)(C)C(=O)CC(O)(C(F)(F)Cl)C(F)(F)Cl, the T/C [2] is reported as 100 % of control and the T/C [3] is reported as 100 % of control.

For O=C1CCCC2C3CC(CN12)C1CC(O)CCN1C3 (stereo not given), the T/C (dose: 20.0 mg/kg/injection, schedule: Q01DX010 (ip), vehicle: saline) was 90 % of control, the T/C (dose: 40.0 mg/kg/injection, schedule: Q01DX010 (ip), vehicle: saline) was 100 % of control and the T/C (dose: 80.0 mg/kg/injection, schedule: Q01DX010 (ip), vehicle: saline) was 100 % of control.

For N=C1C=C[C@]2(O)C[C@H](Cl)CN12, the T/C (dose: 0.38 mg/kg/injection, schedule: Q01DX009 (ip), vehicle: saline) was 104 % of control, the T/C (dose: 0.75 mg/kg/injection, schedule: Q01DX009 (ip), vehicle: saline) was 104 % of control and the T/C (dose: 1.5 mg/kg/injection, schedule: Q01DX009 (ip), vehicle: saline) was 114 % of control. The T/C (dose: 3.0 mg/kg/injection, schedule: Q01DX009 (ip), vehicle: saline) was 98 % of control and the T/C (dose: 6.0 mg/kg/injection, schedule: Q01DX009 (ip), vehicle: saline) was 117 % of control.

In the case of Cc1csc2nc(-c3ccccc3)nc(Cl)c12, the T/C (dose: 75.0 mg/kg/injection, schedule: Q04DX003 (ip), vehicle: saline sonified) is reported as 105 % of control, the T/C (dose: 150.0 mg/kg/injection, schedule: Q04DX003 (ip), vehicle: saline sonified) is reported as 120 % of control and the T/C (dose: 300.0 mg/kg/injection, schedule: Q04DX003 (ip), vehicle: saline sonified) is reported as 110 % of control.

COc1cc(/C=N/n2cnnc2)cc(OC)c1OC was tested, and the T/C [4] was 100 % of control, the T/C [5] was 100 % of control and the T/C [6] was 109 % of control.

Clc1ccc(N2CCN(CCCN3CCN(c4cccc(Cl)c4)CC3)CC2)cc1 was tested, and the T/C (dose: 50.0 mg/kg/injection, schedule: Q04DX003 (ip), vehicle: saline sonified) was 100 % of control, the T/C (dose: 100.0 mg/kg/injection, schedule: Q04DX003 (ip), vehicle: saline sonified) was 100 % of control and the T/C (dose: 200.0 mg/kg/injection, schedule: Q04DX003 (ip), vehicle: saline sonified) was 91 % of control.

Cc1ccc(C(=O)N=[N+]=[N-])o1 was tested, and the T/C [1] was 108 % of control.

NC(=O)NCCNC(N)=O was tested, and the T/C [7] was 95 % of control, the T/C [4] was 112 % of control and the T/C [8] was 95 % of control. For the same molecule, the T/C [5] was 95 % of control, the T/C [9] was 91 % of control and the T/C [6] was 112 % of control.

With COc1ccc2nc3cc(Cl)ccc3c(NC(C)CCCN(CCCl)CCCl)c2c1 (stereo not given) the T/C (dose: 0.17 mg/kg/injection, schedule: Q04DX003 (ip), vehicle: saline) was 110 % of control, the T/C (dose: 0.25 mg/kg/injection, schedule: Q01DX009 (ip), vehicle: saline) was 154 % of control and the T/C (dose: 0.4 mg/kg/injection, schedule: Q01DX009 (ip), vehicle: saline) was 162 % of control. For the same molecule, the T/C (dose: 0.62 mg/kg/injection, schedule: Q01DX009 (ip), vehicle: saline) was 159 % of control and 166 % of control, the T/C (dose: 0.93 mg/kg/injection, schedule: Q01DX009 (ip), vehicle: saline) was 87 % of control and 100 % of control and the T/C (dose: 1.0 mg/kg/injection, schedule: Q01DX009 (ip), vehicle: saline) was 118 % of control. The T/C (dose: 4.0 mg/kg/injection, schedule: Q01DX009 (ip), vehicle: saline) was 95 % of control, the T/C (dose: 62.5 micrograms/kg/injection, schedule: Q01DX009 (ip), vehicle: saline) was 95 % of control and the T/C (dose: 125.0 micrograms/kg/injection, schedule: Q01DX009 (ip), vehicle: saline) was 113 % of control. For the same molecule, the T/C (dose: 500.0 micrograms/kg/injection, schedule: Q01DX009 (ip), vehicle: saline) was 168 % of control and the T/C (dose: 1000.0 micrograms/kg/injection, schedule: Q01DX009 (ip), vehicle: saline) was 150 % of control.

With CCCC(C1=CC(C)(C)c2ccccc2C1=O)c1ccc(Br)cc1 (stereo not given) the T/C [10] was 109 % of control, the T/C [11] was 100 % of control and the T/C [12] was 100 % of control. The T/C [13] was 113 % of control, the T/C [14] was 95 % of control and 100 % of control and the T/C [15] was 100 % of control. For the same molecule, the T/C (dose: 300.0 mg/kg/injection, schedule: Q01DX009 (ip), vehicle: Klucel (hydroxypropylcellulose) (HPC)) was 100 % of control, the T/C [16] was 95 % of control and the T/C [17] was 100 % of control.

COc1ccc(C(=S)N2CCN(c3ccccc3)CC2)cc1 was tested, and the T/C [1] was 95 % of control, the T/C [2] was 100 % of control and the T/C [3] was 95 % of control.

For CC1(C)N=C(N)N=C(N)N1c1cccc(CCCCc2ccc(S(=O)(=O)F)cc2)c1, the T/C (dose: 2.75 mg/kg/injection, schedule: Q01DX009 (ip), vehicle: saline) was 120 % of control, the T/C (dose: 8.25 mg/kg/injection, schedule: Q01DX009 (ip), vehicle: saline) was 150 % of control and the T/C (dose: 18.75 mg/kg/injection, schedule: Q01DX009 (ip), vehicle: saline) was 150 % of control.

With COc1cccc(/C=N\O)c1 the T/C (dose: 100.0 mg/kg/injection, schedule: Q04DX003 (ip), vehicle: saline with Tween-80) was 104 % of control, the T/C (dose: 200.0 mg/kg/injection, schedule: Q04DX003 (ip), vehicle: saline with Tween-80) was 100 % of control and the T/C (dose: 400.0 mg/kg/injection, schedule: Q04DX003 (ip), vehicle: saline with Tween-80) was 104 % of control.

With CC1OC(OC2C(O)C(O)C(O)C(O)C2O)C(N)CC1N=C(N)C(=O)O (stereo not given) the T/C [7] was 91 % of control, the T/C [8] was 100 % of control and the T/C [9] was 116 % of control.

In the case of O=C(OC[P+](c1ccccc1)(c1ccccc1)c1ccccc1)c1ccccc1, the T/C (dose: 3.13 mg/kg/injection, schedule: Q01DX009 (ip), vehicle: saline) is reported as 112 % of control, the T/C (dose: 25.0 mg/kg/injection, schedule: Q01DX009 (ip), vehicle: saline) is reported as 122 % of control and the T/C (dose: 50.0 mg/kg/injection, schedule: Q01DX009 (ip), vehicle: saline) is reported as 91 % of control.

CCCCC(/C=C1/CCCCC1=O)CC (stereo not given) was tested, and the T/C [11] was 95 % of control, the T/C [12] was 104 % of control and the T/C [14] was 87 % of control. The T/C [15] was 104 % of control, the T/C [16] was 91 % of control and the T/C [17] was 113 % of control.

For Nn1nc2ccccc2n1, the T/C (dose: 100.0 mg/kg/injection, schedule: Q04DX003 (ip), vehicle: other) was 100 % of control, the T/C (dose: 200.0 mg/kg/injection, schedule: Q04DX003 (ip), vehicle: other) was 100 % of control and the T/C (dose: 400.0 mg/kg/injection, schedule: Q04DX003 (ip), vehicle: other) was 100 % of control.

In the case of S=c1[nH]c2ccccc2s1.[Zn+2], the T/C [1] is reported as 98 % of control, the T/C [2] is reported as 100 % of control and the T/C [3] is reported as 99 % of control.

For CC1(C)CC(=O)C=C(NCc2ccccc2)C1, the T/C (dose: 37.5 mg/kg/injection, schedule: Q01DX009 (ip), vehicle: Klucel (hydroxypropylcellulose) (HPC)) was 100 % of control, the T/C [10] was 100 % of control and the T/C [13] was 100 % of control.
